Measured values reported in US9221827B2, “Antimicrobial compounds and methods of making and using the same” (Melinta Therapeutics, Inc., priority 2011, dated 2015).

Test system: Escherichia coli strain ATCC25922
Assay: standard microdilution assay to determine minimum inhibitory concentrations (MICs)
Format: cell-based
How it was run: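 MICs come from CLSI-guided microdilution in 100 μl, run alongside reference-strain performance standards. Values appear as "+" or "−" relative to 16 micrograms/ml, with "N/A" marking missing data.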

[1] = Escherichia coli strain ATCC25922, standard microdilution assay
[2] = Escherichia coli strain ATCC25922, microdilution

SMILES: CC(C)Cc1cc(CCC[C@H](C)N)cc(-c2cc3cn(-c4ccc(CNCCCNC(=N)N)cc4)c(=O)nc3[nH]2)c1F [Compound 431]
- E. coli ATCC25922 MIC [1]: + (a “+” indicates that the compound has an MIC value of 16 micrograms/ml or less)

SMILES: CC(C)Cc1cc(CCC[C@H](C)N)cc(-c2cc3cn(-c4ccc([C@H](C)NCCCNC(=N)N)cc4)c(=O)nc3[nH]2)c1F [Compound 432]
- E. coli ATCC25922 MIC [1]: + (a “+” indicates that the compound has an MIC value of 16 micrograms/ml or less)

SMILES: CC(C)[C@H](NCCCNC(=N)N)c1ccc(-n2cc3cc(-c4cc(CCC[C@H](C)N)cc(Cl)c4F)[nH]c3nc2=O)cc1 [Compound 433]
- E. coli ATCC25922 MIC [1]: + (a “+” indicates that the compound has an MIC value of 16 micrograms/ml or less)

SMILES: C[C@H](N)CCCc1cc(-c2cc3cn(-c4ccc([C@H](C)NCCCNC(=N)N)cc4)c(=O)nc3[nH]2)cc(C(C)(C)C)c1 [Compound 434]
- E. coli ATCC25922 MIC [1]: + (a “+” indicates that the compound has an MIC value of 16 micrograms/ml or less)

SMILES: N=C(N)NCCCNCc1ccc(-n2cc3cc(-c4cc(OC(F)(F)F)cc(C5CCC(CN)O5)c4)[nH]c3nc2=O)cc1 (centres unmarked) [Compound 435]
- E. coli ATCC25922 MIC [1]: + (a “+” indicates that the compound has an MIC value of 16 micrograms/ml or less)

SMILES: CC(NCCCNC(=N)N)c1ccc(-n2cc3cc(-c4cc(OC(F)(F)F)cc(C5CCC(CN)O5)c4)[nH]c3nc2=O)cc1 (centres unmarked) [Compound 436]
- E. coli ATCC25922 MIC [1]: + (a “+” indicates that the compound has an MIC value of 16 micrograms/ml or less)

SMILES: N=C(N)NCCCNCc1ccc(-n2cc3cc(-c4cc(OC(F)(F)F)cc(C5CCC(CN)O5)c4)[nH]c3nc2=O)cc1 (centres unmarked) [Compound 437]
- E. coli ATCC25922 MIC [1]: + (a “+” indicates that the compound has an MIC value of 16 micrograms/ml or less)

SMILES: CC(NCCCNC(=N)N)c1ccc(-n2cc3cc(-c4cc(OC(F)(F)F)cc(C5CCC(CN)O5)c4)[nH]c3nc2=O)cc1 (centres unmarked) [Compound 438]
- E. coli ATCC25922 MIC [1]: + (a “+” indicates that the compound has an MIC value of 16 micrograms/ml or less)

SMILES: C[C@H](N)CCCc1cc(-c2cc3cn(-c4ccc(CNCCCNC(=N)N)cc4)c(=O)nc3[nH]2)cc(C(C)(C)C)c1 [Compound 439]
- E. coli ATCC25922 MIC [1]: + (a “+” indicates that the compound has an MIC value of 16 micrograms/ml or less)

SMILES: C[C@H](N)CCCc1cc2c(c(-c3cc4cn(-c5ccc([C@H](C)NCCCNC(=N)N)cc5)c(=O)nc4[nH]3)c1)COC2 [Compound 441]
- E. coli ATCC25922 MIC [1]: + (a “+” indicates that the compound has an MIC value of 16 micrograms/ml or less)

SMILES: C[C@H](N)CCCc1cc2c(c(-c3cc4cn(-c5ccc(CNCCCNC(=N)N)cc5)c(=O)nc4[nH]3)c1)COC2 [Compound 442]
- E. coli ATCC25922 MIC [1]: + (a “+” indicates that the compound has an MIC value of 16 micrograms/ml or less)

SMILES: C[C@H](N)CCCc1cc(-c2cc3cn(-c4ccc([C@H](C)NCCCNC(=N)N)cc4)c(=O)nc3[nH]2)cc2c1COC2 [Compound 443]
- E. coli ATCC25922 MIC [1]: + (a “+” indicates that the compound has an MIC value of 16 micrograms/ml or less)

SMILES: C[C@H](N)CCCc1cc(-c2cc3cn(-c4ccc(CNCCCNC(=N)N)cc4)c(=O)nc3[nH]2)cc2c1COC2 [Compound 444]
- E. coli ATCC25922 MIC [1]: + (a “+” indicates that the compound has an MIC value of 16 micrograms/ml or less)

SMILES: COC[C@H](N)CCCc1cc(Cl)c(F)c(-c2cc3cn(-c4ccc(CNCCCNC(=N)N)cc4)c(=O)nc3[nH]2)c1 [Compound 445]
- E. coli ATCC25922 MIC [1]: + (a “+” indicates that the compound has an MIC value of 16 micrograms/ml or less)

SMILES: Cc1c(-c2cc3cn(-c4ccc(CNCCCNC(=N)N)cc4)c(=O)nc3[nH]2)cc(CCC[C@H](C)N)cc1C(C)C [Compound 446]
- E. coli ATCC25922 MIC [1]: + (a “+” indicates that the compound has an MIC value of 16 micrograms/ml or less)

SMILES: CC(C)c1cc(CCC[C@H](C)N)cc(-c2cc3cn(-c4ccc([C@H](C)NCCCNC(=N)N)cc4)c(=O)nc3[nH]2)c1F [Compound 447]
- E. coli ATCC25922 MIC [1]: + (a “+” indicates that the compound has an MIC value of 16 micrograms/ml or less)

SMILES: N=C(N)NCCCNCc1ccc(-n2cc3cc(-c4cc(CC5CCC(N)CC5)cc(Cl)c4F)[nH]c3nc2=O)cc1 (centres unmarked) [Compound 448]
- E. coli ATCC25922 MIC [1]: + (a “+” indicates that the compound has an MIC value of 16 micrograms/ml or less)

SMILES: C[C@H](NCCCNC(=N)N)c1ccc(-n2cc3cc(-c4cc(CC5CCC(N)CC5)cc(Cl)c4F)[nH]c3nc2=O)cc1 (some centres unmarked) [Compound 449]
- E. coli ATCC25922 MIC [1]: + (a “+” indicates that the compound has an MIC value of 16 micrograms/ml or less)

SMILES: N=C(N)NCCCNCc1ccc(-n2cc3cc(-c4cc(C5CCC(CN)CC5)cc(Cl)c4F)[nH]c3nc2=O)cc1 (centres unmarked) [Compound 450]
- E. coli ATCC25922 MIC [1]: + (a “+” indicates that the compound has an MIC value of 16 micrograms/ml or less)

SMILES: C[C@H](NCCCNC(=N)N)c1ccc(-n2cc3cc(-c4cc(C5CCC(CN)CC5)cc(Cl)c4F)[nH]c3nc2=O)cc1 (some centres unmarked) [Compound 451]
- E. coli ATCC25922 MIC [1]: + (a “+” indicates that the compound has an MIC value of 16 micrograms/ml or less)

SMILES: Cc1c(CC(C)C)cc(CCC[C@H](C)N)cc1-c1cc2cn(-c3ccc(CNCCCNC(=N)N)cc3)c(=O)nc2[nH]1 [Compound 452]
- E. coli ATCC25922 MIC [1]: + (a “+” indicates that the compound has an MIC value of 16 micrograms/ml or less)

SMILES: Cc1c(CC(C)C)cc(CCC[C@H](C)N)cc1-c1cc2cn(-c3ccc([C@H](C)NCCCNC(=N)N)cc3)c(=O)nc2[nH]1 [Compound 453]
- E. coli ATCC25922 MIC [1]: + (a “+” indicates that the compound has an MIC value of 16 micrograms/ml or less)

SMILES: CC(C)(N)COCc1cc(-c2cc3cn(-c4ccc(CNCCCNC(=N)N)cc4)c(=O)nc3[nH]2)cc(C(F)(F)F)c1 [Compound 454]
- E. coli ATCC25922 MIC [1]: + (a “+” indicates that the compound has an MIC value of 16 micrograms/ml or less)

SMILES: C[C@H](NCCCNC(=N)N)c1ccc(-n2cc3cc(-c4cc(COCC(C)(C)N)cc(C(F)(F)F)c4)[nH]c3nc2=O)cc1 [Compound 455]
- E. coli ATCC25922 MIC [1]: + (a “+” indicates that the compound has an MIC value of 16 micrograms/ml or less)

SMILES: C[C@H](N)CCCc1cc2c(c(-c3cc4cn(-c5ccc([C@H](C)NCCCNC(=N)N)cc5)c(=O)nc4[nH]3)c1)OCCC2=O [Compound 456]
- E. coli ATCC25922 MIC [1]: + (a “+” indicates that the compound has an MIC value of 16 micrograms/ml or less)

SMILES: C[C@H](N)CCCc1cc2c(c(-c3cc4cn(-c5ccc([C@H](C)NCCCNC(=N)N)cc5)c(=O)nc4[nH]3)c1)CC=C2 [Compound 457]
- E. coli ATCC25922 MIC [1]: + (a “+” indicates that the compound has an MIC value of 16 micrograms/ml or less)

SMILES: C[C@H](N)CCCc1cc(CC(C)(C)C)c(F)c(-c2cc3cn(-c4ccc([C@H](C)NCCCNC(=N)N)cc4)c(=O)nc3[nH]2)c1 [Compound 458]
- E. coli ATCC25922 MIC [1]: + (a “+” indicates that the compound has an MIC value of 16 micrograms/ml or less)

SMILES: N=C(N)NCCCNCc1ccc(-n2cc3cc(-c4cc(COC5COCC5N)cc(OC(F)(F)F)c4)[nH]c3nc2=O)cc1 (centres unmarked) [Compound 459]
- E. coli ATCC25922 MIC [1]: + (a “+” indicates that the compound has an MIC value of 16 micrograms/ml or less)

SMILES: C[C@H](NCCCNC(=N)N)c1ccc(-n2cc3cc(-c4cc(COC5COCC5N)cc(OC(F)(F)F)c4)[nH]c3nc2=O)cc1 (some centres unmarked) [Compound 460]
- E. coli ATCC25922 MIC [1]: + (a “+” indicates that the compound has an MIC value of 16 micrograms/ml or less)

SMILES: C[C@H](N)CCCc1cc2c(c(-c3cc4cn(-c5ccc([C@H](C)NCCCNC(=N)N)cc5)c(=O)nc4[nH]3)c1)CCC2=O [Compound 461]
- E. coli ATCC25922 MIC [1]: + (a “+” indicates that the compound has an MIC value of 16 micrograms/ml or less)

SMILES: C[C@H](N)CCCc1cc(F)c(F)c(-c2cc3cn(-c4ccc([C@H](C)NCCCNC(=N)N)cc4)c(=O)nc3[nH]2)c1 [Compound 462]
- E. coli ATCC25922 MIC [1]: + (a “+” indicates that the compound has an MIC value of 16 micrograms/ml or less)

SMILES: C[C@H](N)CCCc1cc(F)c(F)c(-c2cc3cn(-c4ccc(CNCCCNC(=N)N)cc4)c(=O)nc3[nH]2)c1 [Compound 463]
- E. coli ATCC25922 MIC [1]: + (a “+” indicates that the compound has an MIC value of 16 micrograms/ml or less)

SMILES: C[C@H](N)CCCc1cc(-c2cc3cn(-c4ccc([C@H](C)NCCCNC(=N)N)cc4)c(=O)nc3[nH]2)cc(F)c1F [Compound 464]
- E. coli ATCC25922 MIC [1]: + (a “+” indicates that the compound has an MIC value of 16 micrograms/ml or less)

SMILES: C[C@H](N)CCCc1cc(-c2cc3cn(-c4ccc(CNCCCNC(=N)N)cc4)c(=O)nc3[nH]2)cc(F)c1F [Compound 465]
- E. coli ATCC25922 MIC [1]: + (a “+” indicates that the compound has an MIC value of 16 micrograms/ml or less)

SMILES: C[C@H](N)CCCc1cc(-c2cc3cn(-c4ccc([C@H](C)NCCCNC(=N)N)cc4)c(=O)nc3[nH]2)c(F)c(C2CCOC2)c1 (some centres unmarked) [Compound 466]
- E. coli ATCC25922 MIC [1]: + (a “+” indicates that the compound has an MIC value of 16 micrograms/ml or less)

SMILES: Cc1cc(CCC[C@H](C)N)cc(-c2cc3cn(-c4ccc(CNCCCNC(=N)N)cc4)c(=O)nc3[nH]2)c1C [Compound 467]
- E. coli ATCC25922 MIC [1]: + (a “+” indicates that the compound has an MIC value of 16 micrograms/ml or less)

SMILES: Cc1cc(CCC[C@H](C)N)cc(-c2cc3cn(-c4ccc([C@H](C)NCCCNC(=N)N)cc4)c(=O)nc3[nH]2)c1C [Compound 468]
- E. coli ATCC25922 MIC [1]: + (a “+” indicates that the compound has an MIC value of 16 micrograms/ml or less)

SMILES: C[C@H](N)CCCc1cc(-c2cc3cn(-c4ccc([C@H](C)NCCCNC(=N)N)cc4)c(=O)nc3[nH]2)cc2c1OCCO2 [Compound 469]
- E. coli ATCC25922 MIC [2]: + (a “+” indicates that the compound has an MIC value of 16 micrograms/ml or less)

SMILES: C[C@H](N)CCCc1cc(SC(F)(F)F)c(F)c(-c2cc3cn(-c4ccc([C@H](C)NCCCNC(=N)N)cc4)c(=O)nc3[nH]2)c1 [Compound 471]
- E. coli ATCC25922 MIC [2]: + (a “+” indicates that the compound has an MIC value of 16 micrograms/ml or less)

SMILES: C=CC[C@H](NCCCNC(=N)N)c1ccc(-n2cc3cc(-c4cc(CCC[C@H](C)N)cc(Cl)c4F)[nH]c3nc2=O)cc1 [Compound 472]
- E. coli ATCC25922 MIC [2]: + (a “+” indicates that the compound has an MIC value of 16 micrograms/ml or less)

SMILES: C=C[C@H](NCCCNC(=N)N)c1ccc(-n2cc3cc(-c4cc(CCC[C@H](C)N)cc(SC(F)(F)F)c4)[nH]c3nc2=O)cc1 [Compound 473]
- E. coli ATCC25922 MIC [2]: + (a “+” indicates that the compound has an MIC value of 16 micrograms/ml or less)
